Where two headings read alike, the source gives them in different places. Some results are limits rather than exact numbers.

Experiment [1] has as its target BTK (Homo sapiens (Human), UniProt Q06187). The experiment in a line: In vitro BTK kinase assay: Btk-PolyGAT-LS assay. The class given is biochemical. As to conditions: ATP 10 μM, polyGAT 100 nM, BTK 0.25 nM, 30 minutes.
Experiment [2] deals with CD69 expression on CD19+ B cells in human whole blood. As to the kind of experiment: In vitro whole blood CD69 assay. In kind it is cell-based. Conditions: B-cell.
[3] abbreviates: Whole Blood CD69 inhibition, human heparinized blood, anti-human IgD stimulation, CD19+ B cells expressing CD69, read-out: IC50.

Chain of BTK (Q06187 whole entry): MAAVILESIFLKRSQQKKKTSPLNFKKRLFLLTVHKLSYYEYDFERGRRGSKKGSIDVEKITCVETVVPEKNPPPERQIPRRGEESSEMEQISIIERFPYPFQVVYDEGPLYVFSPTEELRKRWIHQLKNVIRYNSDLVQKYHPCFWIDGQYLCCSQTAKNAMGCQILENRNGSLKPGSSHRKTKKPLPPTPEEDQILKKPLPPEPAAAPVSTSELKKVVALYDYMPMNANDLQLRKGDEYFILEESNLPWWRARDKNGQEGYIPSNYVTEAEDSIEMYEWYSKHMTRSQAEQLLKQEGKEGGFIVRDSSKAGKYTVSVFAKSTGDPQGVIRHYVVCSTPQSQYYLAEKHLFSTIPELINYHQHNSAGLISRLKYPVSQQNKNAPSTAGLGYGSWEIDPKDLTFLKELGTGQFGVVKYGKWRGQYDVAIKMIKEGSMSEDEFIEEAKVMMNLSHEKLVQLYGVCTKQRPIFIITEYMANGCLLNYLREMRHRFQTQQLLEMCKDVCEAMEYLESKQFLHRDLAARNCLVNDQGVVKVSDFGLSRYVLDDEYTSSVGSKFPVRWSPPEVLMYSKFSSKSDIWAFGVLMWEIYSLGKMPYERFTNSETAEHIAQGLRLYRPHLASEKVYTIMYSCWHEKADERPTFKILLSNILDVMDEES

Turning to `C=CC(=O)N(C)CCOc1cnccc1-c1ccc(CNC(=O)c2cc(C(C)(C)C)on2)c(C)c1` [Example 16, 5-(tert-butyl)-N-(2-methyl-4-(3-(2-(N-methylacrylamido)ethoxy)pyridin-4-yl)benzyl)isoxazole-3-carboxamide], the IC50 (commonly the point on the concentration scale where inhibition reaches its midpoint) in experiment [1] was under 1 nM.

As for `C=CC(=O)N(C)CCOc1cnccc1-c1ccc(CNC(=O)c2ccn(C(C)(C)C)n2)c(Cl)c1F` [Example 15, 1-(tert-butyl)-N-(2-chloro-3-fluoro-4-(3-(2-(N-methylacrylamido)ethoxy)pyridin-4-yl)benzyl)-1H-pyrazole-3-carboxamide], the IC50 in experiment [1] was in the range of 1 to 10 nM.

Take `C=CC(=O)N(C)CCOc1c(N)ncnc1-c1ccc(CNC(=O)c2cn(C(C)(C)C)nn2)c(C)c1` [Example 8, N-(4-(6-amino-5-(2-(N-methylacrylamido)ethoxy)pyrimidin-4-yl)-2-methylbenzyl)-1-(tert-butyl)-1H-1,2,3-triazole-4-carboxamide]: the IC50 is under 1 nM in experiment [1] and under 100 nM in experiment [2] (setting [3]).

Turning to `C=CC(=O)N1CC[C@@H](Oc2cnccc2-c2ccc(CNC(=O)c3cn(C(C)(C)C)nn3)c(C)c2)C1` (single isomer, unassigned) [Example 35], the figures for the half-maximal inhibitory concentration (IC50) in experiment [1] and in experiment [2] (setting [3]) were over 10 nM and over 1000 nM, respectively.

Turning to `Cc1cc(-c2ccncc2OC2CN(C(=O)/C=C/CN(C)C)C2)ccc1CNC(=O)c1cn(C(C)(C)C)nn1` [Example 40, (E)-1-(tert-butyl)-N-(4-(3-((1-(4-(dimethylamino)but-2-enoyl)azetidin-3-yl)oxy)pyridin-4-yl)-2-methylbenzyl)-1H-1,2,3-triazole-4-carboxamide], the IC50 in experiment [1] is over 10 nM; in experiment [2] (setting [3]), over 1000 nM.

Take `C=CC(=O)N(C)CCOc1cnccc1-c1ccc(CNC(=O)c2noc(C(C)(C)C)n2)c(C)c1` [Example 4, 5-(tert-butyl)-N-(2-methyl-4-(3-(2-(N-methylacrylamido)ethoxy)pyridin-4-yl)benzyl)-1,2,4-oxadiazole-3-carboxamide]: the IC50 in experiment [1] was under 1 nM; in experiment [2] (setting [3]), under 100 nM.

Take `C=CC(=O)N(C)CCOc1c(N)ncnc1-c1ccc(CN2Cc3cc(C4CC4)sc3C2=O)c(C)c1` [Example 11, N-(2-((4-amino-6-(4-((2-cyclopropyl-6-oxo-4,6-dihydro-5H-thieno[2,3-c]pyrrol-5-yl)methyl)-3-methylphenyl)pyrimidin-5-yl)oxy)ethyl)-N-methylacrylamide]: the results for the IC50 in experiment [1] and in experiment [2] (setting [3]) were under 1 nM and 100 to 1000 nM, respectively.

The compound `C=CC(=O)N1CC[C@H]1COc1cnccc1-c1ccc(CNC(=O)c2ccc(C(F)(F)F)nc2)c(C)c1` [Example 52, (S)-N-(4-(3-((1-acryloylazetidin-2-yl)methoxy)pyridin-4-yl)-2-methylbenzyl)-6-(trifluoromethyl)nicotinamide] displayed an IC50 in experiment [1] of over 10 nM.

Take `C=CS(=O)(=O)N1CCCC1COc1cnccc1-c1ccc(CNC(=O)c2cn(C(C)(C)C)nn2)c(C)c1F` (stereo not shown) [Example 50, 1-(tert-butyl)-N-(3-fluoro-2-methyl-4-(3-((1-(vinylsulfonyl)pyrrolidin-2-yl)methoxy)pyridin-4-yl)benzyl)-1H-1,2,3-triazole-4-carboxamide]: the half-inhibitory concentration (IC50) is under 1 nM in experiment [1] and over 1000 nM in experiment [2] (setting [3]).

`C=CC(=O)N(C)CCOc1cnccc1-c1ccc(CNC(=O)c2noc(C(C)(C)C)n2)cc1F` [Example 13, 5-(tert-butyl)-N-(3-fluoro-4-(3-(2-(N-methylacrylamido)ethoxy)pyridin-4-yl)benzyl)-1,2,4-oxadiazole-3-carboxamide] had an IC50 in experiment [1] of under 1 nM.

`C=CC(=O)N1CCC(Oc2cnccc2-c2ccc(CNC(=O)c3cn(C(C)(C)C)nn3)c(C)c2)C1` (stereo not shown) [Example 34, N-(4-(3-((1-acryloylpyrrolidin-3-yl)oxy)pyridin-4-yl)-2-methylbenzyl)-1-(tert-butyl)-1H-1,2,3-triazole-4-carboxamide] gave an IC50 in experiment [1] of over 10 nM.

As for `C=CC(=O)N(C)CCOc1cncnc1-c1ccc(CNC(=O)c2noc(C(C)(C)C)n2)c(C)c1` [Example 3, 5-(tert-butyl)-N-(2-methyl-4-(5-(2-(N-methylacrylamido)ethoxy)-pyrimidin-4-yl)benzyl)-1,2,4-oxadiazole-3-carboxamide], the IC50 in experiment [1] was under 1 nM; in experiment [2] (setting [3]), under 100 nM.

`C#CC(=O)N1CCC(Oc2cnccc2-c2ccc(CNC(=O)c3cn(C(C)(C)C)nn3)c(C)c2)CC1` [Example 44, 1-(tert-butyl)-N-(2-methyl-4-(3-((1-propioloylpiperidin-4-yl)oxy)pyridin-4-yl)benzyl)-1H-1,2,3-triazole-4-carboxamide]: the IC50 in experiment [1] was under 1 nM; in experiment [2] (setting [3]) it was over 1000 nM.

Take `C=CC(=O)N1CCCC(Oc2cncnc2-c2ccc(CNC(=O)c3cn(C(C)(C)C)nn3)c(C)c2)C1` (stereo not shown) [Example 39, N-(4-(5-((1-acryloylpiperidin-3-yl)oxy)pyrimidin-4-yl)-2-methylbenzyl)-1-(tert-butyl)-1H-1,2,3-triazole-4-carboxamide]: the half-inhibitory concentration (IC50) was over 10 nM in experiment [1] and over 1000 nM in experiment [2] (setting [3]).

In experiment [1], `C=CC(=O)N(C)CCOc1cnccc1-c1ccc(CNC(=O)c2noc(C(C)(C)C)n2)c(C(F)(F)F)c1` [Example 14, 5-(tert-butyl)-N-(4-(3-(2-(N-methylacrylamido)ethoxy)pyridin-4-yl)-2-(trifluoromethyl)benzyl)-1,2,4-oxadiazole-3-carboxamide] gave a 50% inhibitory concentration (IC50) of under 1 nM.

As for `Cc1cc(-c2ccncc2OC2CCN(C(=O)/C=C/CN(C)C)CC2)ccc1CNC(=O)c1cn(C(C)(C)C)nn1` [Example 42, (E)-1-(tert-butyl)-N-(4-(3-((1-(4-(dimethylamino)but-2-enoyl)piperidin-4-yl)oxy)pyridin-4-yl)-2-methylbenzyl)-1H-1,2,3-triazole-4-carboxamide], the results for the IC50 in experiment [1] and in experiment [2] (setting [3]) were under 1 nM and 100 to 1000 nM, respectively.

On to `C=CC(=O)N1CCCC[C@@H]1C(=O)Nc1cnccc1-c1ccc(CNC(=O)c2noc(C(C)(C)C)n2)c(C)c1` [Example 31, (R)-N-(4-(3-(1-acryloylpiperidine-2-carboxamido)pyridin-4-yl)-2-methylbenzyl)-5-(tert-butyl)-1,2,4-oxadiazole-3-carboxamide], for which the IC50 in experiment [1] was under 1 nM; in experiment [2] (setting [3]), under 100 nM.

Consider `C=CC(=O)N(C)CCOc1c(N)ncnc1-c1ccc(CN2CCN(CC(C)(C)C)CC2=O)c(C)c1` [Example 9, N-(2-((4-amino-6-(3-methyl-4-((4-neopentyl-2-oxopiperazin-1-yl)methyl)phenyl)pyrimidin-5-yl)oxy)ethyl)-N-methylacrylamide], for which the IC50 is under 1 nM in experiment [1] and under 100 nM in experiment [2] (setting [3]).

Consider `Cc1cc(-c2ccncc2OC2CCN(C(=O)/C=C/CN(C)C)C2)ccc1CNC(=O)c1cn(C(C)(C)C)nn1` (stereo not shown) [Example 41, (E)-1-(tert-butyl)-N-(4-(3-((1-(4-(dimethylamino)but-2-enoyl)pyrrolidin-3-yl)oxy)pyridin-4-yl)-2-methylbenzyl)-1H-1,2,3-triazole-4-carboxamide], for which the results for the IC50 in experiment [1] and in experiment [2] (setting [3]) were over 10 nM and over 1000 nM, respectively.

As for `C#CC(=O)N1CCCC1COc1cnccc1-c1ccc(CNC(=O)c2cn(C(C)(C)C)nn2)c(C)c1F` (stereo not shown) [Example 48, 1-(tert-butyl)-N-(3-fluoro-2-methyl-4-(3-((1-propioloylpyrrolidin-2-yl)methoxy)pyridin-4-yl)benzyl)-1H-1,2,3-triazole-4-carboxamide], in experiment [1], the IC50 fell in the range of 1 to 10 nM.

For `C=CC(=O)N(C)CCOc1cnccc1-c1ccc(CNC(=O)c2cc(C(C)(C)C)on2)c(F)c1F` [Example 17, 5-(tert-butyl)-N-(2,3-difluoro-4-(3-(2-(N-methylacrylamido)ethoxy)pyridin-4-yl)benzyl)isoxazole-3-carboxamide], the IC50 in experiment [1] was under 1 nM.

For `C=CC(=O)N(C)CCOc1c(N)ncnc1-c1ccc(CNC(=O)c2nnc(C(C)(C)C)o2)c(C)c1` [Example 1, N-(4-(6-amino-5-(2-(N-methylacrylamido)ethoxy)pyrimidin-4-yl)-2-methylbenzyl)-5-(tert-butyl)-1,3,4-oxadiazole-2-carboxamide], the IC50 was under 1 nM in experiment [1] and under 100 nM in experiment [2] (Homo sapiens).

In the case of `C=CC(=O)N(C)CCOc1c(N)ncnc1-c1ccc(CN2CCc3c(cnn3C(C)(C)C)C2=O)c(C)c1` [Example 6, N-(2-((4-amino-6-(4-((1-(tert-butyl)-4-oxo-1,4,6,7-tetrahydro-5H-pyrazolo[4,3-c]pyridin-5-yl)methyl)-3-methylphenyl)pyrimidin-5-yl)oxy)ethyl)-N-methylacrylamide], the results for the IC50 in experiment [1] and in experiment [2] (setting [3]) were under 1 nM and under 100 nM, respectively.

`C=CC(=O)N(C)CC(=O)Nc1cncnc1-c1ccc(CNC(=O)c2cn(C(C)(C)C)nn2)c(C)c1` [Example 29, 1-(tert-butyl)-N-(2-methyl-4-(5-(2-(N-methylacrylamido)acetamido)pyrimidin-4-yl)benzyl)-1H-1,2,3-triazole-4-carboxamide] registered an IC50 in experiment [1] of under 1 nM.

With `C=CC(=O)NCC(=O)Nc1cncnc1-c1ccc(CNC(=O)c2cn(C(C)(C)C)nn2)c(C)c1` [Example 30, N-(4-(5-(2-acrylamidoacetamido)pyrimidin-4-yl)-2-methylbenzyl)-1-(tert-butyl)-1H-1,2,3-triazole-4-carboxamide], in experiment [1], the IC50 was in the range of 1 to 10 nM.

As for `C=CC(=O)N1CCCC(Oc2cnccc2-c2ccc(CNC(=O)c3cn(C(C)(C)C)nn3)c(C)c2)C1` (stereo not shown) [Example 38, N-(4-(3-((1-acryloylpiperidin-3-yl)oxy)pyridin-4-yl)-2-methylbenzyl)-1-(tert-butyl)-1H-1,2,3-triazole-4-carboxamide], the half-inhibitory concentration (IC50) in experiment [1] was over 10 nM; in experiment [2] (setting [3]), over 1000 nM.

With `C=CC(=O)N1CCC(COc2cnccc2-c2ccc(CNC(=O)c3cn(C(C)(C)C)nn3)c(C)c2F)C1` (stereo not shown) [Example 51, N-(4-(3-((1-acryloylpyrrolidin-3-yl)methoxy)pyridin-4-yl)-3-fluoro-2-methylbenzyl)-1-(tert-butyl)-1H-1,2,3-triazole-4-carboxamide], the IC50 in experiment [1] was under 1 nM.

The values above are taken from patent publication US12570631B2, “Substituted N-(4-(pyrimidin and pyridin-4-yl)benzylcarboxamides and its use for treating disorders responsive to inhibition of Btk” (BIOGEN MA INC., priority 2019, dated 2026).
